Here are results for eight compounds from US20210145730A1, “PROCESS FOR PREPARING AN ORAL DISINTEGRATING DOSAGE FORM” (Zeenar Enterprises Pty Ltd, priority 2017, published 2021).

One series deals with porcine buccal mucosa. The series is described as follows: In vitro release through porcine buccal mucosa in Ussing chamber. As to conditions: up to 4 hours, n=5.
Series [1] in a line: SAXS liquid crystalline phase formation for mixes of GMO and another ingredient immersed in PBS buffer (Example 1). In kind it is physicochemical. The procedure: The samples were then mixed via a roller mixer at ˜10 RPM at 40° C. for at least 3 days. One week prior to SAXS experiment, 100 mg samples were loaded into a transparent polystyrene 96 well plate (Nunc™) and immersed in 200 μL of PBS buffer (pH 6.8). The samples were stored away from light at ambient temperature, to allow the samples to reach equilibrium. The SAXS/WAXS beamline at Australian Synchrotron, Melbourne, Australia was used to determine the liquid crystalline nanostructure in the samples. A custom-designed plate holder was used to mount the samples plate directly onto the SAXS/WAXS beamline. Scans were automated using a pre-loaded set of position variables based on the well positions within the plate, the exposure time was 5 sec. Data were obtained at ambient temperature (˜22° C.). […] The 2-D diffraction images were recorded on a Pilatus 1M detector and radially integrated using the in-house software “ScatterBrain”.

For series [2] the following is noted: cited from earlier work.
For series [3] the following is noted: WO 2014/179845; cited from earlier work.
[4] abbreviates: 1% w/w ingredient in mix with GMO.
Setting [5] is: 5% w/w ingredient in mix with GMO.
The mark [6] stands for this setting: 20% and above w/w ingredient in mix with GMO.

Structures can show the parent of a compound that is named as a salt. Where two headings read alike, the source gives them in different places.

`COc1ccc2c3c1O[C@H]1C(=O)CC[C@@]4(O)[C@@H](C2)N(C)CC[C@]314` [Oxycodone]: in the series on porcine buccal mucosa, the “release characteristics (appearance of active ingredient in the receptor chamber over time)” value is “prolonged release profile with release continuing steadily at 4 hours”.

For the compound `O=S(=O)([O-])NC1CCCCC1.[Na+]` [Sodium cyclamate], the “Liquid crystalline phase formed” value in series [1] (20% w/w ingredient in mix with GMO) was “lamellar”; in series [1] (50% w/w ingredient in mix with GMO), “lamellar + crystals”; in series [1] (up to 10% w/w ingredient in mix with GMO), “cubic”. Moreover, the Phase structure result in series [1] (Concentration in GMO 1%) was “V2(Pn3m)”; in series [1] (Concentration in GMO 5%), “V2(Pn3m)”; in series [1] (Concentration in GMO 10%) it was “V2(Pn3m) + other”; in series [1] (Concentration in GMO 20%), “Lα (lamella)”; in series [1] (Concentration in GMO 35%), “Lα + other”; in series [1] (Concentration in GMO 50%), “Lα + other”.

As for `O=C(O)c1cccnc1` [Niacin], the logP in series [2] is recorded as 0.36. Also, the “liquid crystalline phase formed by blend with GMO” value in series [3] is recorded as “hexagonal phase”.

Take `CNCC(O)c1ccc(O)c(O)c1` (centres unmarked) [Adrenaline]: in series [2], the logP is given as −0.5 to −1.2.

For the compound `CC1CCC(C(C)C)C(O)C1` (centres unmarked) [Menthol], the “Liquid crystalline phase formed” value is on record as “Cubic” in series [1] (setting [4]); “cubic liquid crystalline structure” in series [1] (1% w/w ingredient in mix with GMO, listed as menthol); “hexagonal liquid crystalline structure” in series [1] (setting [5]); “Hexagonal” in series [1] (5-10% w/w ingredient in mix with GMO); “Lamellar” in series [1] (setting [6]); “reverse lamella crystalline structure” in series [1] (20 to 50% ingredient directly mixed with GMO). Further, in series [1] (Concentration in GMO 1%), the Phase structure entry is listed as “V2(Pn3m)”.

For the compound `COc1ccc(O)c(C(C)(C)C)c1` [Butylated hydroxy anisole (BHA), Butylated hydroxy anisole], the “Liquid crystalline phase formed” value in series [1] (setting [4]) was “cubic”; in series [1] (setting [5]) it was “cubic + hexagonal”; in series [1] (10-20% w/w ingredient in mix with GMO), “hexagonal”; in series [1] (30% and above w/w ingredient in mix with GMO), “reverse emulsion”. Further, the Phase structure entry in series [1] (Concentration in GMO 1%) was “V2(Pn3m)”; in series [1] (Concentration in GMO 5%), “V2(Pn3m) + H2”.

`CC(C)c1nc(N(C)S(C)(=O)=O)nc(-c2ccc(F)cc2)c1/C=C/[C@@H](O)C[C@@H](O)CC(=O)O` [Rosuvastatin, reference compound]: the logP in series [2] (at pH 5) is given as 1.80 at pH 5; in series [2] (at pH 7) it was 0.30 at pH 7. Also, the “Liquid crystalline phase formed” value in series [1] (setting [6]) was “Lamellar”; in series [1] (up to 15% w/w ingredient in mix with GMO), “Cubic (2 types)”. In addition, the Phase structure entry is recorded as “V2(Pn3m)” in series [1] (Concentration in GMO 1%); “V2(Pn3m)” in series [1] (Concentration in GMO 5%); “V2(Pn3m)” in series [1] (Concentration in GMO 10%); “V2(Pn3m) + V2(Im3m)” in series [1] (Concentration in GMO 15%); “Lα” in series [1] (Concentration in GMO 20%); “Lα + Lα” in series [1] (Concentration in GMO 35%). The Phase structure entry in series [1] (Concentration in GMO 50%) was “Lα”. Also, the “limit of inclusion before GMO is prevented from forming a cubic liquid crystalline structure” value in series [1] (directly mixed with GMO, contact with hydrophilic solvent) came out at 15%.

Take `CCOC(=O)CC(O)(CC(=O)OCC)C(=O)OCC` [Tri ethyl citrate (TEC), Tri ethyl citrate]: the “Liquid crystalline phase formed” value in series [1] (35% and above w/w ingredient in mix with GMO) is reported as “reverse emulsion”; in series [1] (up to 20% w/w ingredient in mix with GMO), “cubic”. Moreover, the Phase structure entry in series [1] (Concentration in GMO 1%) is “V2(Pn3m) (ie”; in series [1] (Concentration in GMO 5%), “V2(Pn3m)”; in series [1] (Concentration in GMO 10%), “V2(Pn3m)”; in series [1] (Concentration in GMO 20%), “V2(Pn3m)”.
